Like-named read-outs stand apart in the source and are kept apart here.
How the values were obtained:
[1] = Rosen, cited from earlier work
[2] = Efficiency in surface tension reduction, pC20 (Example 92); format: physicochemical; details: 60 °C, estimated by extrapolation
Excerpt: Since surface tension reduction depends on the replacement of water molecules at the interface by surfactant molecules, the efficiency of a surfactant in reducing interfacial tension should reflect the concentration of surfactant at the interface relative to that in bulk liquid phase. A suitable measure of efficiency with which a surfactant performs this function can be described as pC20. This is defined as the negative logarithm of the bulk phase surfactant concentration necessary to reduce the surface tension of water by 20 dyn/cm and is given as:
pC20 =-log [C(-Δγ=20) ]=-log [C20]
C(-Δγ=20) =C20 is the bulk phase surfactant concentration necessary to reduce the surface tension of water by 20 dyn/cm.
In general, pC20 values are usually close to the minimum concentration needed to saturate the interface with surfactant molecules.

[3] = Rosen, cited from earlier work; remark: listed apart in the source
[4] = Rosen, cited from earlier work; remark: listed apart in the source
[5] = Area per molecule at the water/air interface (Example 95); format: physicochemical; details: 60 °C
Excerpt: The area per molecule of a surfactant at the water/air interface provides information on the degree of packing and the orientation of the adsorbed surfactant molecule. While not wishing to be bound by theory, it is believed that surfactants that have small area per molecule values tend to pack more closely at the interface than those with large area per molecule values. From the surface excess concentration at surface saturation (Γmax), the area per molecule (am) of C8 /C10 oxypropyl D-gluconamide was determined and is given by:
am =1×10^16 /Nav Γmax

[6] = Effectiveness in reducing surface tension (Example 93); format: physicochemical; details: 60 °C
Excerpt: As mentioned before, surface tension reduction depends on the replacement of water molecules at the interface by surfactant molecules, therefore the effectiveness of a surfactant in reducing interfacial surface tension should reflect the saturated concentration of surfactant at the interface relative to that in bulk liquid phase. During this process the surface tension of water steadily decreases as bulk phase surfactant concentration increases. This will continue until the concentration reaches the critical micelle concentration (CMC), above which the surface tension remains nearly unchanged and the interface is saturated with surfactant. The surface tension at the CMC is therefore very close to the minimum interfacial tension or maximum surface pressure that the system can achieve. The surface pressure at this point, IIcmc, is a suitable measure of the effectiveness of a surfactant in reducing surface tension and is given as:
.PI.cmc 20+2.3nRT(Γmax) log [CMC/C20 ]
n=1 which represents the number of ions whose surface concentration changes with the change in liquid phase suffactant concentration.
CMC/C20 =is the ratio of the critical micelle concentration to the bulk phase surfactant concentration necessary to reduce the surface tension of water by 20 dyn/cm.

[7] = Rosen, cited from earlier work; remark: listed apart in the source
[8] = Effectiveness of adsorption, surface excess concentration at surface saturation (Example 94); format: physicochemical; details: 60 °C, estimated by extrapolation
Excerpt: The surface excess concentration at surface saturation (Γmax) is defined as a measure of the effectiveness of surfactant adsorption at the water/air interface and represents the maximum value to which adsorption can be obtained. Effectiveness of adsorption is related to the interfacial area occupied by the surfactant molecule. The smaller the effective cross-sectional area of a surfactant at the interface, the greater its effectiveness of adsorption. The effectiveness of adsorption is an important factor in determining surfactant properties such as detergency, foaming, wetting or emulsification. While not wishing to be bound by theory, it is believed that surfactants that absorb effectively at the interface tend have tightly packed coherent interfacial films and often provide better surfactant benefits than those with loosely packed noncoherent films. The effectiveness of adsorption of C8 /C10 oxypropyl D-gluconamide was determined using the Gibbs equation given as: […]
ergs/cm^2 (which is equivalent to the slope of a plot of γ

[9] = Viscosity of prototype shampoo compositions with sodium lauryl sulfate, Brookfield Digital Viscometer (Example 88); format: physicochemical; details: vs no thickener
Protocol: (§1) The prototype shampoo composition is as follows:
(§2) The above formulations were prepared by admixing the above ingredients in listed order and heating the mixture to about 80° C. with rapid stirring. The mixture was then cooled to about 40° C., placed in a clear jar and stored at room temperature for 6 months.
It is well known that the viscosity of a liquid composition comprising of anionic surfactant can be modified by the addition of inorganic salts, such as sodium chloride. However, in the absence of an organic modifier, high levels of salt may be necessary to achieve the required viscosity which may lead to problems of storage at cold temperature or even salting out certain ingredients. In practice, however, the viscosity of a liquid composition is modified by the simultaneous addition of thickener and small amounts of inorganic salt (viscosity cobuilder). The combined effect is greater than either one alone. The viscosity of the above prototype shampoo composition comprising various amounts of heteroatom containing alkyl aldonamide compound is as follows: […]

[10] = Ross-Miles foam height assay of aldonamides (Examples 81-84); format: physicochemical; details: 0.1% aldonamide, 40° C. (if not soluble, about 5°-10° C. above Krafft point), 0 ppm hardness
Protocol: In the Ross-Miles method, 200 mL of a suffactant solution contained in a pipette of specified dimensions with a 2.9 -mm-i.d. orifice is allowed to fall 90 cm onto 50 mL of the same solution contained in a cylindrical vessel maintained at a given temperature by means of a water jacket. The height of the foam produced in the cylindrical vessel is read immediately after all the solution has run out of the pipette and then again after a given amount of time.
Using this method, the foam production (initial foam height in mm) and foam stability (final foam height after 10 minutes in mm) were measured at 0.1% aldonamtde concentration, 40° C. and 0 ppm (parts per million) hardness.

zein = tested on: zein
Excerpt: The zein solubilization assay was developed to determine the biological effects of surfactants on the skin. The protein is normally in soluble in water, but can be brought into solution by interaction with surfactants. The extent of zein dissolved is related to the irritation potential (M. J. Schwinger, Kolloid-Z. Z. Poly., 233, 848, 1969). The greater the zein solubilization, the greater the irritation potential of that surfactant on the skin.
Thus, a 1% solution of surfactant (30 mls) was added to 1.5 g of zein and stirred at room temperature for 1 hour. Residual zein was collected and dried to constant weight. Differences between starting and residual weights were used to calculate % zein solubilized.

[11] = Clarity of prototype shampoo compositions with sodium lauryl sulfate (Example 87); format: physicochemical; details: room temperature, 6 months
Protocol: as §1, §2

[12] = Viscosity of prototype shampoo compositions of Example 86, Brookfield Digital Viscometer; format: physicochemical; details: 4.0% thickener
Excerpt: The results are as follows:

[13] = Micellar shape and structure, packing parameter (Example 96); details: T=333.15° K.
Excerpt: A theory of miceIlar structure, based upon the geometry of various micelle shapes and the space occupied by the surfactant has been disclosed by J. N. Israelachvili, D. J. Mitchell and B. W. Ninham in the J. Chem. Soc. Faraday Trans. 2, 1525, 72, (1976) which is given as the packing parameter (p).
VT =V(CH3) +(nc -1)V(CH2) and represents the volume occupied by the hydrophobic groups in the miceliar core at a given temperature.
1c= 1.50+1.26 nc Å and represents the length of the hydrophobic group in the core.
am =area per molecule or the cross-sectional area occupied by the hydrophilic group at the interface.
nc =total number of carbons in the alkyl chain.

[14] = Surface tension at the water/air interface (Example 91); format: physicochemical; details: 60 °C
Protocol: An important characteristic feature that surfactants have is the tendency for them to absorb at the water/air interface in an oriented manner, thereby altering the interfacial free energy of that surface. The surface free energy per unit area or surface tension (γ), is a measure of this work and may be considered as the minimum amount of work required to bring sufficient surfactant molecules to the surface.
The surface tension (γ) value of C8 /C10 oxypropyl D-gluconamide was determined and is set forth below: […]

[15] = Critical micelle concentration, Wilhelmy plate method (Example 90); format: physicochemical
Protocol: The critical micelle concentration (CMC) is defined as the concentration at which a surfactant forms micelles in aqueous solution. Micellization is the preferred interfacial phenomena, since certain surfactant benefits such as detergency (the solubilization of soils), foaming, wetting or emulsification depend on the formation of these aggregates in solution.
The CMC value of C8 /C10 oxypropyl D-gluconamide was determined by plotting surface tension as a function of log(concentration) and extrapolating linear points to obtain an intersection point. The concentration at this point was taken as the CMC. The technique used was the Wilhelmy plate method and the instrument used was a Lauda Auto-Tensiometer. While wishing not to be bound to theory, it is believed that surfactants with low CMC values form micelles more readily at lower concentrations than those with high CMC values.

[16] = 3.0% thickener in […] sodium lauryl sulfate shampoo
[17] = 5.0% thickener in […] sodium lauryl sulfate shampoo

| Molecule | Appearance (Time) [11, 16] | Appearance (Time) [11, 17] | γ (surface tension) [14] [dyn/cm] | .PI.cmc (surface pressure) ([1]; 25 °C) [dyn/cm] | CMC/C20 ([1]; 25 °C) | .PI.cmc (surface pressure) ([1]; 40 °C) [dyn/cm] | CMC/C20 ([1]; 40 °C) | pC20 [2] | Γmax (surface excess concentration at surface saturation) ([3]; 25 °C) | Γmax (surface excess concentration at surface saturation) ([3]; 40 °C) | pC20 ([4]; 25 °C) | pC20 ([4]; 40 °C) | am (area per molecule) ([5]; estimated by extrapolation) [Å^2] | .PI.cmc (surface pressure) ([6]; estimated by extrapolation) [dyn/cm] | am (area per molecule) ([7]; 25 °C) [Å^2] | am (area per molecule) ([7]; 40 °C) [Å^2] | Γmax (surface excess concentration at surface saturation) [8] | other results |
| --- | --- | --- | --- | --- | --- | --- | --- | --- | --- | --- | --- | --- | --- | --- | --- | --- | --- | --- |
| CCCCCCCCCCCCOCCOCCOCCOCCOCCOCCOCCOCCO [Dodecylocta(oxyethylene) Ether] |  |  |  | 37.2 | 17.3 | 37.3 | 15.4 | 5.39 | 2.52 × 10^-10 mole/cm^2 | 2.46 × 10^-10 mole/cm^2 | 5.20 | 5.22 | 69.0 | 36.3 | 66.0 | 67.4 | 2.40 × 10^-10 mole/cm^2 |  |
| C8 /C10 oxypropyl D-gluconamide | Clear | Clear | 29.2 |  |  |  |  |  |  |  |  |  |  |  |  |  |  | Increase (viscosity) ([9]; 1.0% thickener): 13 ×; Increase (viscosity) ([9]; 2.0% thickener): 27 ×; Increase (viscosity) ([9]; 3.0% thickener): 80 ×; Increase (viscosity) ([9]; 4.0% thickener): 148 ×; Increase (viscosity) ([9]; 5.0% thickener): 860 ×; Foam Height Initial [10]: 212 mm; Foam Height Final ([10]; after 10 minutes): 165 mm; am (area per molecule) [5]: 43.1 Å^2; .PI.cmc (surface pressure) [6]: 38.5 dyn/cm; % Zein Solubilized (zein): 6%; Appearance (Time) ([11]; 4.0% thickener in […] sodium lauryl sulfate shampoo): Clear; increased the viscosity of that composition ([12]; Example 86 shampoo (2395/22)): 109 times; Viscosity ([12]; Example 86 shampoo, 22° C.): 2395 Centipoise; p (packing parameter) [13]: 0.503 |
| CCCCCCCCCCCCOCCOCCOCCOCCOCCOCCOCCO [Dodecylhepta(oxyethylene) Ether] |  |  |  | 38.3 | 14.9 | 38.5 | 13.9 | 5.41 | 2.90 × 10^-10 mole/cm^2 | 2.77 × 10^-10 mole/cm^2 | 5.26 | 5.28 | 61.0 | 36.8 | 57.3 | 59.9 | 2.71 × 10^-10 mole/cm^2 |  |

Further lines, with some results ahead:

| Appearance (Time) [11, 16] | Appearance (Time) [11, 17] | γ (surface tension) [14] [dyn/cm] | Molecule | .PI.cmc (surface pressure) ([1]; 25 °C) [dyn/cm] | CMC/C20 ([1]; 25 °C) | .PI.cmc (surface pressure) ([1]; 40 °C) [dyn/cm] | CMC/C20 ([1]; 40 °C) | pC20 [2] | Γmax (surface excess concentration at surface saturation) ([3]; 25 °C) | Γmax (surface excess concentration at surface saturation) ([3]; 40 °C) | pC20 ([4]; 25 °C) | pC20 ([4]; 40 °C) | am (area per molecule) ([5]; estimated by extrapolation) [Å^2] | .PI.cmc (surface pressure) ([6]; estimated by extrapolation) [dyn/cm] | am (area per molecule) ([7]; 25 °C) [Å^2] | am (area per molecule) ([7]; 40 °C) [Å^2] | Γmax (surface excess concentration at surface saturation) [8] | other results |
| --- | --- | --- | --- | --- | --- | --- | --- | --- | --- | --- | --- | --- | --- | --- | --- | --- | --- | --- |
|  |  | 60.2 | O [Water] |  |  |  |  |  |  |  |  |  |  |  |  |  |  |  |
| Precipitate (2 days) | Precipitate (1 hour) |  | CCCCCCCCCCCCNC(=O)[C@H](O)[C@@H](O)[C@H](O)[C@H](O)CO [C12 D-Gluconamide, dodecyl D-gluconamide] |  |  |  |  |  |  |  |  |  |  |  |  |  |  | CMC ([15]; 60 °C): None; water solubility ([15]; 60 °C table entry / discussion): insoluble in water and can not form micelles |
